Test results as given in patent publication US20260042731A1, “(2,4-DICHLOROPHENOXY)ACETIC ACID ANALOGS” (CORTEVA AGRISCIENCE LLC, priority 2022, published 2026).
Read-outs that look alike come from different tables or passages of the source.

Tests used:
[1] = tested on: Abutilon theophrasti (ABUTH), velvetleaf; assay: Postemergence herbicide evaluation, growth of Abutilon theophrasti (ABUTH); assay type: in vivo; conditions: Abutilon theophrasti, post-emergence, read-out: AVE. ABUTH, percent reduction in plant size relative to the untreated control; for pest or weed control at 280 g/ha: 280 g ae/ha; for pest or weed control at 560 g/ha: 560 g ae/ha
[2] = Volatility of compounds measured by thermogravimetric analysis (TGA); assay type: physicochemical
[3] = tested on: weeds ABUTH, AMATA, AMBEL, CHEAL, ERICA; assay: Postemergence herbicide evaluation, overall average % weed control (ABUTH, AMATA, AMBEL, CHEAL, ERICA); assay type: in vivo; conditions: post-emergence, read-out: Overall Ave % Weed Control; for pest or weed control at 280 g/ha: 280 g ae/ha; for pest or weed control at 560 g/ha: 560 g ae/ha
[4] = tested on: glyphosate resistant Conyza canadensis (L.) (ERICA), horseweed; assay: Postemergence herbicide evaluation, growth of Conyza canadensis (ERICA); assay type: in vivo; conditions: Erigeron canadensis, post-emergence, read-out: Ave. ERICA, percent reduction in plant size relative to the untreated control; for pest or weed control at 280 g/ha: 280 g ae/ha; for pest or weed control at 560 g/ha: 560 g ae/ha
[5] = tested on: Chenopodium album (CHEAL), common lambsquarters; assay: Postemergence herbicide evaluation, growth of Chenopodium album (CHEAL); assay type: in vivo; conditions: Chenopodium album, post-emergence, read-out: Ave. CHEAL, percent reduction in plant size relative to the untreated control; for pest or weed control at 280 g/ha: 280 g ae/ha; for pest or weed control at 560 g/ha: 560 g ae/ha
[6] = tested on: Amaranthus rudis (AMATA), tall water hemp; assay: Postemergence herbicide evaluation, growth of Amaranthus rudis (AMATA); assay type: in vivo; conditions: Amaranthus tuberculatus, post-emergence, read-out: Ave. AMATA, percent reduction in plant size relative to the untreated control; for pest or weed control at 280 g/ha: 280 g ae/ha; for pest or weed control at 560 g/ha: 560 g ae/ha
[7] = tested on: Ambrosia artemisiifolia (AMBEL), common ragweed; assay: Postemergence herbicide evaluation, growth of Ambrosia artemisiifolia (AMBEL); assay type: in vivo; conditions: Ambrosia artemisiifolia, post-emergence, read-out: AVE. AMBEL, percent reduction in plant size relative to the untreated control; for pest or weed control at 280 g/ha: 280 g ae/ha; for pest or weed control at 560 g/ha: 560 g ae/ha

`O=C(COc1ccc(Cl)cc1Cl)Nc1cc[nH]n1` [Compound D21] showed a pest or weed control at 280 g/ha ([1]; 168 h, 7 DAA) of 32.5%, a pest or weed control at 560 g/ha ([1]; 168 h, 7 DAA) of 47.5% and a pest or weed control at 280 g/ha ([1]; 336 h, 14 DAA) of 37.5%. For the same molecule, the pest or weed control at 560 g/ha ([1]; 336 h, 14 DAA) was 57.5%, the pest or weed control at 280 g/ha ([1]; 504 h, 21 DAA) was 47.5% and the pest or weed control at 560 g/ha ([1]; 504 h, 21 DAA) was 75%. For the same molecule, the “TGA Data (rate of weight loss, volatility)” value [2] was 0.07078 µg/min, the pest or weed control at 280 g/ha ([3]; 168 h, 7 DAA) was 69% and the pest or weed control at 560 g/ha ([3]; 168 h, 7 DAA) was 76.5%. For the same molecule, the pest or weed control at 280 g/ha ([3]; 336 h, 14 DAA) was 78.1%, the pest or weed control at 560 g/ha ([3]; 336 h, 14 DAA) was 86.5% and the pest or weed control at 280 g/ha ([3]; 504 h, 21 DAA) was 80.4%. It also gave a pest or weed control at 560 g/ha ([3]; 504 h, 21 DAA) of 93.8%, a pest or weed control at 280 g/ha ([4]; 168 h, 7 DAA) of 82.5% and a pest or weed control at 560 g/ha ([4]; 168 h, 7 DAA) of 80%. It also gave a pest or weed control at 280 g/ha ([4]; 336 h, 14 DAA) of 100%, a pest or weed control at 560 g/ha ([4]; 336 h, 14 DAA) of 100% and a pest or weed control at 280 g/ha ([4]; 504 h, 21 DAA) of 95%. For the same molecule, the pest or weed control at 560 g/ha ([4]; 504 h, 21 DAA) was 98%, the pest or weed control at 280 g/ha ([5]; 168 h, 7 DAA) was 82.5% and the pest or weed control at 560 g/ha ([5]; 168 h, 7 DAA) was 80%. The pest or weed control at 280 g/ha ([5]; 336 h, 14 DAA) was 95%, the pest or weed control at 560 g/ha ([5]; 336 h, 14 DAA) was 92.5% and the pest or weed control at 280 g/ha ([5]; 504 h, 21 DAA) was 92.5%. The pest or weed control at 560 g/ha ([5]; 504 h, 21 DAA) was 96%, the pest or weed control at 280 g/ha ([6]; 168 h, 7 DAA) was 72.5% and the pest or weed control at 560 g/ha ([6]; 168 h, 7 DAA) was 90%. The pest or weed control at 280 g/ha ([6]; 336 h, 14 DAA) was 88%, the pest or weed control at 560 g/ha ([6]; 336 h, 14 DAA) was 90% and the pest or weed control at 280 g/ha ([6]; 504 h, 21 DAA) was 67.5%. For the same molecule, the pest or weed control at 560 g/ha ([6]; 504 h, 21 DAA) was 100%, the pest or weed control at 280 g/ha ([7]; 168 h, 7 DAA) was 75% and the pest or weed control at 560 g/ha ([7]; 168 h, 7 DAA) was 85%. It also gave a pest or weed control at 280 g/ha ([7]; 336 h, 14 DAA) of 70%, a pest or weed control at 560 g/ha ([7]; 336 h, 14 DAA) of 92.5% and a pest or weed control at 280 g/ha ([7]; 504 h, 21 DAA) of 99.5%. The pest or weed control at 560 g/ha ([7]; 504 h, 21 DAA) was 100%.
With `CC(C)CONC(=O)COc1ccc(Cl)cc1Cl` [Compound D22] the pest or weed control at 280 g/ha ([1]; 168 h, 7 DAA) was 72.5%, the pest or weed control at 560 g/ha ([1]; 168 h, 7 DAA) was 82.5% and the pest or weed control at 280 g/ha ([1]; 336 h, 14 DAA) was 93.5%. For the same molecule, the pest or weed control at 560 g/ha ([1]; 336 h, 14 DAA) was 98.5%, the pest or weed control at 280 g/ha ([1]; 504 h, 21 DAA) was 100% and the pest or weed control at 560 g/ha ([1]; 504 h, 21 DAA) was 99%. The “TGA Data (rate of weight loss, volatility)” value [2] was 0.2649 µg/min, the pest or weed control at 280 g/ha ([3]; 168 h, 7 DAA) was 81.5% and the pest or weed control at 560 g/ha ([3]; 168 h, 7 DAA) was 85.5%. For the same molecule, the pest or weed control at 280 g/ha ([3]; 336 h, 14 DAA) was 93.5%, the pest or weed control at 560 g/ha ([3]; 336 h, 14 DAA) was 97.3% and the pest or weed control at 280 g/ha ([3]; 504 h, 21 DAA) was 97%. It also gave a pest or weed control at 560 g/ha ([3]; 504 h, 21 DAA) of 99.3%, a pest or weed control at 280 g/ha ([4]; 168 h, 7 DAA) of 85% and a pest or weed control at 560 g/ha ([4]; 168 h, 7 DAA) of 85%. The pest or weed control at 280 g/ha ([4]; 336 h, 14 DAA) was 100%, the pest or weed control at 560 g/ha ([4]; 336 h, 14 DAA) was 99% and the pest or weed control at 280 g/ha ([4]; 504 h, 21 DAA) was 100%. The pest or weed control at 560 g/ha ([4]; 504 h, 21 DAA) was 100%, the pest or weed control at 280 g/ha ([5]; 168 h, 7 DAA) was 80% and the pest or weed control at 560 g/ha ([5]; 168 h, 7 DAA) was 82.5%. The pest or weed control at 280 g/ha ([5]; 336 h, 14 DAA) was 91.5%, the pest or weed control at 560 g/ha ([5]; 336 h, 14 DAA) was 99% and the pest or weed control at 280 g/ha ([5]; 504 h, 21 DAA) was 97.5%. For the same molecule, the pest or weed control at 560 g/ha ([5]; 504 h, 21 DAA) was 97.5%, the pest or weed control at 280 g/ha ([6]; 168 h, 7 DAA) was 80% and the pest or weed control at 560 g/ha ([6]; 168 h, 7 DAA) was 92.5%. The pest or weed control at 280 g/ha ([6]; 336 h, 14 DAA) was 92.5%, the pest or weed control at 560 g/ha ([6]; 336 h, 14 DAA) was 92.5% and the pest or weed control at 280 g/ha ([6]; 504 h, 21 DAA) was 87.5%. The pest or weed control at 560 g/ha ([6]; 504 h, 21 DAA) was 100%, the pest or weed control at 280 g/ha ([7]; 168 h, 7 DAA) was 90% and the pest or weed control at 560 g/ha ([7]; 168 h, 7 DAA) was 85%. For the same molecule, the pest or weed control at 280 g/ha ([7]; 336 h, 14 DAA) was 90%, the pest or weed control at 560 g/ha ([7]; 336 h, 14 DAA) was 97.5% and the pest or weed control at 280 g/ha ([7]; 504 h, 21 DAA) was 100%. The pest or weed control at 560 g/ha ([7]; 504 h, 21 DAA) was 100%.
